Measurements published in BindingDB's records for patent US20250084074 (Merck Patent, 2025).

What follows are compounds tested against T1, Kinesin-like protein KIFC1 (Homo sapiens, UniProt Q9BW19) (assay: Inhibitory Activities Against HSET-HSET ADP-Glo Assay).
T1 sequence (Q9BW19 whole entry): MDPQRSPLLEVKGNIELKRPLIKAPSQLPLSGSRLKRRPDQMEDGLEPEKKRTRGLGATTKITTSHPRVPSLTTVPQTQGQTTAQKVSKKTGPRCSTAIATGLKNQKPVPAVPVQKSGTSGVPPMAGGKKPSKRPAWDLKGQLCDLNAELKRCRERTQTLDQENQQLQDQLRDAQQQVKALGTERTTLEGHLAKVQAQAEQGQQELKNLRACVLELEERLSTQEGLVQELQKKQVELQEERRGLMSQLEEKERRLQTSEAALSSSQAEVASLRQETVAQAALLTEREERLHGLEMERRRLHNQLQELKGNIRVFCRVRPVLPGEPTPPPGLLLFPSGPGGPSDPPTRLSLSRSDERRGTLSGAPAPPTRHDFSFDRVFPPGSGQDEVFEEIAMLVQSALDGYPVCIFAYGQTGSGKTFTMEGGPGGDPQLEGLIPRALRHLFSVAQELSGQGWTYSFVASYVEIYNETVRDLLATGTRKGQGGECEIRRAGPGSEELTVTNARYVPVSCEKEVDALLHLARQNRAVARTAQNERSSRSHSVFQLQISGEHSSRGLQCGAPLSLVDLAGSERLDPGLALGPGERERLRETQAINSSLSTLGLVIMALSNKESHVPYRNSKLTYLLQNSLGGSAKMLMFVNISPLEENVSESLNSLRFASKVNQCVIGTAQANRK
Method: Reagents: (+4° C. Storage)Paclitaxel Prod.No.TXD.01 2 mM in DMSO (from Universal Biologicals Cambridge).Tubulin Protein (Pre-formed Microtubules): Bovine Brain Prod.No.MT001-XL Lot.025 10 mg/mL (from Universal Biologicals Cambridge).Reagents: (−80° C. Storage)MT001-XL—Tubulin Protein (Pre-formed Microtubules): Bovine Brain—reconstituted in buffer—15 mM PIPES pH7, 1 mM MgCl2, 20 μM paclitaxel (aliquots at 10 mg/mL) from Universal Biologicals Cambridge.HSET full length protein—Current batch is FL HSET Prep1 (SEQ-000096_002-01_01)Buffer is 20 mM Hepes pH 7.5, 200 mM NaCl, 2 mM TCEP, 5% glycerol (5 μL aliquots at 10.2 μM)Reagents: (−20° C. Storage)ADP-Glo Kinase Assay kit (Promega Prod.No.V9102) 10,000 assay pointsADP-Glo reagent (50 mL), Kinase Detection Reagent (100 mL), and Ultrapure ATP (10 mM) aliquotedBuffer Stocks (filtered and stored at rt for up to 1 month)HEPES acid, 4-(2-Hydroxyethyl)piperazine-1-ethanesulfonic acid MW:238, 238.3 mg/mL=1 M7149 mg/30 mL=1M (pH to 6.8 with 5 M NaOH)PIPES, 1,4-Piperazinediethanesulfonic acid MW: 302.4, 30.24 mg/mL=100 mM; 907.2 mg/30 mL=100 mM (pH to 7 with 5 M NaOH, white cloudy suspension until the pH changes)EGTA, Ethylene glycol-bis(2-aminoethylether)-N,N,N′,N′-tetraacetic acid MW: 380.35, 38.035 mg/mL=100 mM1901.75 mg/50 mL=100 mM (pH to ˜7 with 5 M NaOH)—takes a long time to get into solution and for pH to stabilizeTriton-X-100, MW: 625, 62.5 mg/mL=100 mM (6.25% w/v) (viscous, pipette Triton X-100 with a Gilson using a trimmed pipette tip)ECHO ProtocolCreate an ECHO intermediate plate by adding 24.5 μL DMSO to columns 1 & 2, and 40 μL DMSO to columns 23 & 24 of an ECHO 384PP plateAdd 100 nL of compound/DMSO per well in 384-well Proxi-Plate Plus (white) —Perkin Elmer Cat #6008289 using ECHO dose response protocol 100 nL normal to Assay buffer (Keep on ice): HEPES pH 6.8, MgCl2, EGTA, Triton X-100, DTT, HPLC H2O Microtubule Working Solution (3.2):1 ml PM buffer: PIPES pH 7.0, MgCl2, HPLC H2O, Paclitaxel, mix well, store at rtThen add 26.4 μL of 10 mg/ml microtubules to 724 μL of the above PM buffer to make 750 μL of microtubule working solution @350 μg/mL microtubules (store at rt)Stock HSET enzyme solution (3.1)—keep on iceAdd 1.33 μL 10.2 μM HSET Prepi (SEQ-000096_002-01_01) to 1358 μL assay buffer to make a 10 nM stock for a 5 nM final assay concentration (1/1020 dilution).HSET/Microtubule working solution (3.3)Mix solutions 3.1 and 3.2 in the ratio of 2.5:1 (1214.3 μL 3.1+485.7 μL 3.2) keep at rt for 15 min3.2 is diluted 3.5-fold, 3.1 is diluted 1.4-fold BLANK solution is 357 μL 2XAB+143 μL microtubule working solution 3.2. (Same proportions as HSET/Microtubule working solution (3.3))ATP Working solution is 1 μL 10 mM UltraPure ATP (Promega kit)+999 μL ddH20 gives 10 μM ATP for a 3 μM final assay concentration, stored on ice.Assay procedure in PROXIPLATE 384 PLUS WHITE (Perkin Elmer) plates (Remove 2.4 mL ADP Glo and 4.5 mL Kinase detection reagent from freezer to warm up to rt)Add 3.5 μL BLANK solution to assay plate (column 12)Add 3.5 μL HSET/Microtubule solution (3.3) (columns 1-11 & 13-24)Centrifuge at 1000 rpm for 1 min(pre-incubate enzyme and compound for 10 min)Add 1.5 μL of 10 μM ATP to start reaction gives a final [HSET] of 5 nM, [ATP] of 3 μM and [microtubule] of 70 μg/mL, centrifuge at 1000 rpm for 1 min and incubated at rt for 80 min.After the 80-minute incubation, stop reaction by adding 5 μL ADP-Glo reagent to all wells. Centrifuge for 1 min at 1000 rpm, leave for 40 min at rt.In the dark/away from direct light, add 10 μL Kinase Detection Reagent (KDR) to all wells, Seal plate with a Topseal (Perkin Elmer Cat #6050185) and centrifuge as above, leave for 40 min at rt covered in foil.

Structure (SMILES) | IC50
Cc1nc(NC(=O)CCNc2nccc3ccc(C#N)cc23)sc1C(C)(C)C [US20250084074, Example 50] | 199 nM
Cc1nc(NC(=O)CCNc2nccc3ccc(C#N)cc23)sc1C1(C(F)(F)F)CC1 [US20250084074, Example 51] | 1600 nM
Cc1nc(NC(=O)CCNc2nccc3c(F)cc(C#N)cc23)sc1C(C)(C)C [US20250084074, Example 53] | 240 nM
Cc1nnn(-c2ccc3ccnc(NCCC(=O)Nc4nc(C)c(C(C)(C)C)s4)c3c2)n1 [US20250084074, Example 58] | 14 nM
Cc1nc(-c2ccc3ccnc(NCCC(=O)Nc4nc(C)c(C(C)(C)C)s4)c3c2)no1 [US20250084074, Example 75] | 78 nM
Cc1nc(-c2ccc3ccnc(N[C@H]4C[C@@H](C(=O)Nc5nc(C)c(Br)s5)C4)c3c2)no1 [US20250084074, Example 97] | 1150 nM
CCCc1nc(-c2cnc(NC(=O)CCNc3nccc4ccc(-c5noc(C)n5)cc34)s2)no1 [US20250084074, Example 119] | 67 nM
Cc1nc(-c2cccc(C(=O)NCCC(=O)Nc3nc(C)c(C(F)(F)F)s3)c2)no1 [US20250084074, Example 139] | 2160 nM
CCCOC(=O)c1sc(NC(=O)[C@@H](N)CNC(=O)c2cccc(-c3noc(C)n3)c2)nc1C [US20250084074, Example 160] | 54 nM
CCc1nc(NC(=O)[C@@H](N)CNC(=O)c2cccc(-c3noc(C)n3)c2)sc1C(C)(C)C [US20250084074, Example 161] | 2150 nM
CCCOC(=O)c1sc(C(=O)N2CC[C@@H](NC(=O)c3cccc(-c4noc(C)n4)c3)C2)nc1C [US20250084074, Example 241] | 3080 nM
Cc1nc(-c2cccc(C(=O)NCCC(=O)Nc3cnn(C(=O)OC(C)(C)C)c3)c2)no1 [US20250084074, Example 274] | 6400 nM
